Earlier results in patent US20250000791A1, “OPHTHALMIC FORMULATION FOR PREVENTING AND/OR TREATING CATARACTS BY EYE DROP ADMINISTRATION” (CHENGDU RUIMU BIOPHARMACEUTICALS CO., LTD., priority 2021, published 2025).
Read-outs that look alike come from different tables or passages of the source.

How the values were obtained:
[1] = tested on: crystallins; conditions: lens fragments of cataract patients; lanosterol 0.20 mM, 25-HC 0.25 and 0.50 mM, 37° C., 72 h
[2] = tested on: animal cataract model
[3] = tested on: cataract nucleus obtained after cataract extraction; conditions: 25 mM lanosterol solution, 6 days
[4] = 0.5% LAN solution with 15% DMSO, 20% ethanol or polysorbate 80, injected into the vitreous body of rats

Structure (SMILES) | binding to crystallins / solving cataract [1] | effect on cataract ([2]; administration by eye drops alone) | effect on cataract ([2]; nanoparticles into the vitreous cavity once every 3 days combined with 25 mM eye drops six times a week, 6 weeks) | cataract clarity [3] | effect on lens opacity [4] | effect on the vitreous body [4] | solubility in water
C[C@H](CCCC(C)(C)O)[C@H]1CC[C@H]2[C@@H]3CC=C4C[C@@H](O)CC[C@]4(C)[C@H]3CC[C@]12C [25-hydroxycholesterol] | did not find that lanosterol or 25-hydroxycholesterol can bind to crystallins | – | – | – | – | – | –
CC(C)=CCC[C@@H](C)[C@H]1CC[C@@]2(C)C3=C(CC[C@]12C)[C@@]1(C)CC[C@H](O)C(C)(C)[C@@H]1CC3 [lanosterol] | did not find that lanosterol or 25-hydroxycholesterol can bind to crystallins | cannot treat cataracts | the cataract disappeared | no significant improvement in cataract clarity | poses a risk of promoting lens opacity | causes vitreous turbidness | low solubility in water
